Measurements published in US10000791B2, “Measurement method for human pancreatic lipase activity” (ASAHI KASEI PHARMA CORPORATION, priority 2013, dated 2018).

Legend:
Format in all cases: biochemical
human pancreatic lipase [1] = experiment: pH dependence of human pancreatic lipase activity in the presence of bile acids (diglyceride substrate, UV method); conditions: for pH for giving a maximum value of the activity (apparent optimum pH) / degree of the activation of human pancreatic lipase: pooled serum; for pH for giving a maximum value of the activity (apparent optimum pH): non-conjugated bile acid singly, pH 7.2-8.5; for degree of the activation of human pancreatic lipase: conjugated bile acid singly, 40 mmol/L in R-1
Procedure: After weighing 1,2-dioleoyl glycerol (DODG) (manufactured by Nippon Fine Chemical Co., Ltd.) to attain a concentration of 9.32 mmol/L when dissolved, 1% polyoxyethylene (10) nonyl phenyl ether (NPE) (manufactured by Wako Pure Chemical Industries Ltd.) containing 1.66 mmol/L of MES (manufactured by Dojindo Laboratories) was added thereto to be dissolved therein by stirring at 37° C. for 2 hours, and the resultant was allowed to stand still in ice for 2 hours or more. The thus obtained solution was used as a substrate original liquid.
The above-described diglyceride original liquid was used for preparing a “substrate stock solution” having the following composition:
A “first reaction solution (R-1)” having the following composition was prepared:
A “second reaction solution (R-2)” having the following composition was prepared:
A “second reaction solution (R-2) for sample blank” having the following composition was prepared:
(§1) A mixture of the substrate stock solution and the R-1 in a proportion of 1:2 was used as a first reagent. The R-2 was directly used as a second reagent. As a sample, pooled serum or a control sample (a control containing a pancreatic lipase) was used. A proportion in amount among the sample, the first reagent and the second reagent was set as sample:first reagent:second reagent of 0.01 ml:0.18 ml:0.06 ml. The sample was added to the first reagent, the resultant mixture was heated at 37° C. for 5 minutes, the second reagent was added thereto, and a change rate of an absorbance at 340 nm based on reduced NADP was obtained at 37° C. from 3 minutes after the addition of the second reagent to 4 minutes after the addition, and then, the lipase activity was calculated by using a molecular extinction coefficient of 6300 L/mol·cm of the reduced NADP. Besides, as a sample blank, saline was used instead of a sample, an absorbance was measured by using the reagent for sample blank obtained by removing MGLPII from the second reagent, and a difference between the thus measured two values was defined as an enzyme activity value. For the measurement, Hitachi automatic analyzer Model H7170 or H7080 was used.
As a conjugated bile acid to be added to the R-1, sodium taurodeoxycholate (NaTDCA), sodium glycodeoxycholate (NaGDCA), sodium glycochenodeoxycholate (NaGCDCA), sodium taurochenodeoxycholate (NaTCDCA), sodium glycocholate (NaGCA), sodium taurocholate (NaTCA) and sodium tauroursodeoxycholate (NaTUDCA) all in a concentration of 40 mmol/L were selected, the R-1 was adjusted, by using BES (manufactured by Dojindo Laboratories) respectively to pH 6.8, 7.0, 7.2, 7.4, 7.8, and 8.0, and the human pancreatic lipase activity was measured by using these. The pH of the R-2 was adjusted to be equal to that of the R-1.
It is noted that the concentration of each non-conjugated bile acid was set to be 24 mmol/L in the R-1. Besides, BES was used for adjusting pH to 7.2, 7.6, 7.8 and 8.0, and Bicine was used for adjusting pH to 8.2 and 8.5.
(§2) Similarly to Example 1, a mixture of the substrate stock solution and the R-1 in a proportion of 1:2 was used as a first reagent. Except for this, the measurement was performed in the same manner as in Example 1.
Besides, NaTCA was also combined with a conjugated bile acid, NaTDCA, to examine the pH for giving a maximum value of the human pancreatic lipase activity (the apparent optimum pH). It is noted that a BES buffer was used for adjusting pH to 6.9, 7.2 and 7.7, and a Bicine buffer was used for adjusting pH to 7.95 and 8.2. In each of the combinations of NaGCA/NaDCA, NaTCA/NaDCA, NaTUDCA/NaDCA and NaTCA/NaTDCA, the concentration of each bile acid was set to 20 mmol/L in the R-1. With respect to the combination of NaTCA and NaTDCA, a concentration of 40 mmol/L of NaTDCA was used as a control.
The compositions of the reagents and the measurement operation were the same as those of Example 2.

human pancreatic lipase [2] = experiment: lipase activity measured in control, normal and heparin-administered samples with each reagent (1,2-dioleoyl glycerol, UV method; Liquitech Lipase Color II for verification); parameters: lipase activity relative to (1) comparative example NaDCA (Table 1): concentration or dose not given beside the values; conditions: for lipase activity (Table 1): NaDCA pH 8.15, other bile salts pH 7.0; for lipase activity relative to (1) comparative example NaDCA (Table 1): pH 7.0; for lipase activity (Table 2): comparative example pH 8.15, present example pH 7.1, bile acid 40 mmol/L in R-1
Procedure: as §1, §2
A commercially available reagent for a resorufin colorimetric method, “Liquitech Lipase Color II” manufactured by Roche Diagnostics using 1,2-O-dilauryl-rac-glycerol-3-glutaric acid-(6-methylresorufin)ester (DGGR), which is regarded not to be influenced by a non-pancreatic lipase, such as a lipoprotein lipase or a hepatic lipase, appearing in blood due to administration of heparin, was used for verifying the effect of the present example. “Liquitech Lipase Color II” was used in accordance with the package insert, and a special calibrator was used for calculating the enzyme activity. […] The concentration of each bile acid used in the present example was set to be the same as that in the comparative example.
As samples, a control, non-heparin-administered samples (normal samples), and heparin-administered samples were used.
The compositions of the reagents were the same as those of Example 2. As a comparative example, NaDCA (in a concentration of 40 mmol/L in the R-1) was used as the bile acid, and the reaction solution was adjusted to pH 8.15 (by the Bicine buffer) for measuring a heparin-administered sample.
It is noted that CRM-001b containing a human pancreatic recombinant lipase dissolved not in distilled water but in a pooled serum was used as the calibrator to calculate the lipase activity.
As a bile acid of the present example and a reference example, NaTDCA was selected, and the pH dependence with the pH of a reaction solution changed in a range of 6.2 to 7.6 was examined. It is noted that a case of pH 7.6 was used as the reference example. An MES buffer was used for adjusting pH to 6.2 and 6.4, and the BES buffer was used for adjusting the other pHs. As samples, (six) control samples (controls each containing a pancreatic lipase) and (nine) heparin-administered samples were used. As a comparative example, NaDCA (in a concentration of 40 mmol/L in the R-1) was used as the bile acid, and a reaction solution having pH 8.15 (the Bicine buffer) was used. Besides, “Liquitech Lipase Color II” manufactured by Roche Diagnostics was used for verifying the effect of the present example.

human pancreatic lipase [3] = experiment: pH dependence of human pancreatic lipase activity in the presence of bile acids (diglyceride substrate, UV method); conditions: human pooled serum; pH changed between 7.4 and 8.4 (Example 12)
Target sequence in this assay (P16233 17-465): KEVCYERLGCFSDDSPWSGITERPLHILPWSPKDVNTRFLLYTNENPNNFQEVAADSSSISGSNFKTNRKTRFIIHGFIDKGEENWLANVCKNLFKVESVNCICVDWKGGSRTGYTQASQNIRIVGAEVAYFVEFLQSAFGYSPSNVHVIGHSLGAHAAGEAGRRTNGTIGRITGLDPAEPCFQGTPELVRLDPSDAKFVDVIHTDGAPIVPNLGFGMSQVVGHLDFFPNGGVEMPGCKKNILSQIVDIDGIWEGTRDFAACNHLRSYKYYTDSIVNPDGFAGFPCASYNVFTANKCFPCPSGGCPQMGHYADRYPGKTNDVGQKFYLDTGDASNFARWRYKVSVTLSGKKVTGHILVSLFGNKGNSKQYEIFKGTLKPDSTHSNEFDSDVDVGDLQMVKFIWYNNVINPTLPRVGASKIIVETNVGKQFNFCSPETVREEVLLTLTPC
Target sequence in this assay (P02703 23-112 partner): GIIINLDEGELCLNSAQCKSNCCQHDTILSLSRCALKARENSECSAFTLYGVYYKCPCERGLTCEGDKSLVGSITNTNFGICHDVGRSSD

`C[C@H](CCC(=O)[O-])[C@H]1CC[C@H]2[C@@H]3[C@H](O)C[C@@H]4C[C@H](O)CC[C@]4(C)[C@H]3C[C@H](O)[C@]12C.[Na+]` [NaCA, sodium cholate] was tested, and the “signal of human pancreatic lipase activity” value (human pancreatic lipase [1]; 24 mmol/L in R-1, compared with NaDCA) was “merely a slight signal”.

In the case of `C[C@H](CCC(=O)[O-])[C@H]1CC[C@H]2[C@@H]3[C@H](O)C[C@@H]4C[C@H](O)CC[C@]4(C)[C@H]3CC[C@]12C.[Na+]` [NaCDCA, sodium chenodeoxycholate], the “pH for giving a maximum value of the activity (apparent optimum pH)” value (human pancreatic lipase [1]; 24 mmol/L in R-1) is reported as “about 7.7”.

With `C[C@H](CCC(=O)NCC(=O)[O-])[C@H]1CC[C@H]2[C@@H]3[C@H](O)C[C@@H]4C[C@H](O)CC[C@]4(C)[C@H]3C[C@H](O)[C@]12C.[Na+]` [NaGCA, sodium glycocholate] the “degree of the activation of human pancreatic lipase” value (“degree” for short) (human pancreatic lipase [1]) was “below detection limit”.

In the case of `C[C@H](CCC(=O)NCC(=O)[O-])[C@H]1CC[C@H]2[C@@H]3CC[C@@H]4C[C@H](O)CC[C@]4(C)[C@H]3C[C@H](O)[C@]12C.[Na+]` [NaGDCA, sodium glycodeoxycholate], the “lipase activity (Table 1)” value (human pancreatic lipase [2]; Normal sample 1) is reported as 47.1 U/L, the “lipase activity relative to (1) comparative example NaDCA (Table 1)” value (human pancreatic lipase [2]; Normal sample 1) is reported as 120.6% and the “lipase activity (Table 1)” value (human pancreatic lipase [2]; Normal sample 2) is reported as 91.5 U/L. The “lipase activity relative to (1) comparative example NaDCA (Table 1)” value (human pancreatic lipase [2]; Normal sample 2) was 96.3%, the “lipase activity (Table 1)” value (human pancreatic lipase [2]; Normal sample 3) was 49.7 U/L and the “lipase activity relative to (1) comparative example NaDCA (Table 1)” value (human pancreatic lipase [2]; Normal sample 3) was 106.5%. For the same molecule, the “lipase activity (Table 1)” value (human pancreatic lipase [2]; Normal sample 4) was 32.9 U/L, the “lipase activity relative to (1) comparative example NaDCA (Table 1)” value (human pancreatic lipase [2]; Normal sample 4) was 75.8% and the “lipase activity (Table 1)” value (human pancreatic lipase [2]; Normal sample 5) was 36.2 U/L. The “lipase activity relative to (1) comparative example NaDCA (Table 1)” value (human pancreatic lipase [2]; Normal sample 5) was 89.0%, the “lipase activity (Table 1)” value (human pancreatic lipase [2]; sample Heparin 1) was 39.1 U/L and the “lipase activity relative to (1) comparative example NaDCA (Table 1)” value (human pancreatic lipase [2]; sample Heparin 1) was 50.9%. The “lipase activity (Table 1)” value (human pancreatic lipase [2]; sample Heparin 2) was 47.5 U/L, the “lipase activity relative to (1) comparative example NaDCA (Table 1)” value (human pancreatic lipase [2]; sample Heparin 2) was 54.8% and the “lipase activity (Table 1)” value (human pancreatic lipase [2]; sample Heparin 3) was 36.9 U/L. The “lipase activity relative to (1) comparative example NaDCA (Table 1)” value (human pancreatic lipase [2]; sample Heparin 3) was 32.7%, the “lipase activity (Table 1)” value (human pancreatic lipase [2]; sample Heparin 4) was 28.2 U/L and the “lipase activity relative to (1) comparative example NaDCA (Table 1)” value (human pancreatic lipase [2]; sample Heparin 4) was 27.8%. For the same molecule, the “lipase activity (Table 1)” value (human pancreatic lipase [2]; sample Heparin 5) was 23.8 U/L, the “lipase activity relative to (1) comparative example NaDCA (Table 1)” value (human pancreatic lipase [2]; sample Heparin 5) was 34.8% and the “lipase activity (Table 1)” value (human pancreatic lipase [2]; sample Heparin 6) was 28.9 U/L. For the same molecule, the “lipase activity relative to (1) comparative example NaDCA (Table 1)” value (human pancreatic lipase [2]; sample Heparin 6) was 41.8%, the “lipase activity (Table 1)” value (human pancreatic lipase [2]; sample Heparin 7) was 58.0 U/L and the “lipase activity relative to (1) comparative example NaDCA (Table 1)” value (human pancreatic lipase [2]; sample Heparin 7) was 42.0%. The “lipase activity (Table 1)” value (human pancreatic lipase [2]; sample Heparin 8) was 43.9 U/L, the “lipase activity relative to (1) comparative example NaDCA (Table 1)” value (human pancreatic lipase [2]; sample Heparin 8) was 34.8% and the “lipase activity (Table 1)” value (human pancreatic lipase [2]; sample Heparin 9) was 81.0 U/L. For the same molecule, the “lipase activity relative to (1) comparative example NaDCA (Table 1)” value (human pancreatic lipase [2]; sample Heparin 9) was 48.0%, the “lipase activity (Table 1)” value (human pancreatic lipase [2]; sample PRECINORM) was 52.2 U/L and the “lipase activity relative to (1) comparative example NaDCA (Table 1)” value (human pancreatic lipase [2]; sample PRECINORM) was 102.4%. For the same molecule, the “lipase activity (Table 1)” value (human pancreatic lipase [2]; sample PRECIPATH) was 124.6 U/L and the “lipase activity relative to (1) comparative example NaDCA (Table 1)” value (human pancreatic lipase [2]; sample PRECIPATH) was 97.4%.

With `C[C@H](CCC(=O)NCCS(=O)(=O)O)[C@H]1CC[C@H]2[C@@H]3[C@H](O)C[C@@H]4C[C@H](O)CC[C@]4(C)[C@H]3C[C@H](O)[C@]12C` [NaTCA, sodium taurocholate] the “degree” value (human pancreatic lipase [1]) was “below detection limit”.

With `C[C@H](CCC(=O)NCCS(=O)(=O)[O-])[C@H]1CC[C@H]2[C@@H]3[C@@H](O)C[C@@H]4C[C@H](O)CC[C@]4(C)[C@H]3CC[C@]12C.[Na+]` [NaTCDCA, sodium taurochenodeoxycholate] the “lipase activity (Table 2)” value (human pancreatic lipase [2]; sample Heparin 1) was 54.5 U/L, the “lipase activity (Table 2)” value (human pancreatic lipase [2]; sample Heparin 2) was 31.7 U/L and the “lipase activity (Table 2)” value (human pancreatic lipase [2]; sample Heparin 3) was 48.1 U/L.

For `C[C@H](CCC(=O)NCCS(=O)(=O)[O-])[C@H]1CC[C@H]2[C@@H]3[C@@H](O)C[C@@H]4C[C@H](O)CC[C@]4(C)[C@H]3CC[C@]12C.[Na+]` [NaTUDCA, sodium tauroursodeoxycholate], the “degree” value (human pancreatic lipase [1]) was “below detection limit”.

In the case of sodium deoxycholate [NaDCA], the “pH for giving a maximum value of the activity (apparent optimum pH)” value (human pancreatic lipase [1]; 24 mmol/L in R-1) is reported as “about 8.2”, the “lipase activity (Table 1)” value (human pancreatic lipase [2]; Normal sample 1) is reported as 39.1 U/L and the “lipase activity (Table 1)” value (human pancreatic lipase [2]; Normal sample 2) is reported as 95.0 U/L. For the same molecule, the “lipase activity (Table 1)” value (human pancreatic lipase [2]; Normal sample 3) was 46.6 U/L, the “lipase activity (Table 1)” value (human pancreatic lipase [2]; Normal sample 4) was 43.5 U/L and the “lipase activity (Table 1)” value (human pancreatic lipase [2]; Normal sample 5) was 40.7 U/L. The “lipase activity (Table 1)” value (human pancreatic lipase [2]; sample Heparin 1) was 76.8 U/L, the “lipase activity (Table 1)” value (human pancreatic lipase [2]; sample Heparin 2) was 86.7 U/L and the “lipase activity (Table 1)” value (human pancreatic lipase [2]; sample Heparin 3) was 112.9 U/L. The “lipase activity (Table 1)” value (human pancreatic lipase [2]; sample Heparin 4) was 101.4 U/L, the “lipase activity (Table 1)” value (human pancreatic lipase [2]; sample Heparin 5) was 68.5 U/L and the “lipase activity (Table 1)” value (human pancreatic lipase [2]; sample Heparin 6) was 69.2 U/L. For the same molecule, the “lipase activity (Table 1)” value (human pancreatic lipase [2]; sample Heparin 7) was 138.3 U/L, the “lipase activity (Table 1)” value (human pancreatic lipase [2]; sample Heparin 8) was 126.0 U/L and the “lipase activity (Table 1)” value (human pancreatic lipase [2]; sample Heparin 9) was 168.8 U/L. The “lipase activity (Table 1)” value (human pancreatic lipase [2]; sample PRECINORM) was 51.0 U/L, the “lipase activity (Table 1)” value (human pancreatic lipase [2]; sample PRECIPATH) was 128.0 U/L and the “pH for giving a maximum value of the human pancreatic lipase activity” value (human pancreatic lipase [3]) was “about 8.2”.
